Measured values: patent publication US12428394B2, “2,4-disubstituted pyrimidine derivative, preparation method therefor and use thereof” (CHENGDU ZENITAR BIOMEDICAL TECHNOLOGY CO., LTD., priority 2019, dated 2025)
Read-outs that look alike come from different tables or passages of the source.

Key:
JAK2V617F = test: JAK2V617F-induced myelofibrosis mouse model; assay type: in vivo, BALB/c mice; settings: 30 mg/Kg, oral twice a day, after 8 weeks of treatment
Text: JAK2 mutant JAK2V617F gene vector MSCV-JAK2V617F-GFP (Chengdu Wandao Biotechnology Development Co., Ltd.) and BALB/c mice (Jiangsu Jicui Yaokang Biotechnology Co., Ltd.) were provided as donors. The mouse bone marrow cells were sampled and infected with JAK2V617F virus, and the infected cells were reinfused into BALB/c recipient mice irradiated by X-rays through tail vein. Then, the JAK2V617F-positive myelofibrosis mouse model was induced. […] The administration route was oral administration twice a day, and the mice in the blank control group and the model group took the same volume of normal saline orally. […] Therefore, modifications or improvements made without departing from the spirit of the present invention are within the scope of protection of the present invention.

MV4-11 cells = assay type: in vivo; settings: for Tumor inhibition rate (%): MV4-11 model, oral, QD × 6
Procedure: (§1) MV4-11 cells and SET-2 cells were used to establish a mouse xenograft model to investigate the efficacy. NOD/SCID immunocompromised mice (purchased from Beijing Huafukang Biotechnology Co., Ltd.) were received and acclimated to the environment until they were normalized in diet and activity. MV4-11 and SET-2 cells were routinely incubated and grew to 80% fusion degree. Then, the cells were collected and counted on a blood cell counting plate, with the cell concentration adjusted to 3×10^7 cells/mL. After the cells were collected, 100 μL of cell suspension was inoculated subcutaneously on the back of mice. When the tumor volume reached 100 mm^3, the drug administration was started. The dosage regimen was oral administration every day. […].

SET-2 cells = assay type: in vivo; settings: for Tumor inhibition rate (%): SET-2 model, oral
Procedure: as §1

JAK3 = biological target: T1, JAK3 (Homo sapiens, UniProt P52333); test: In vitro kinase activity experiment, JAK3; assay type: biochemical
T1 construct: purchased Eurofins
T1 sequence (P52333 1-1124): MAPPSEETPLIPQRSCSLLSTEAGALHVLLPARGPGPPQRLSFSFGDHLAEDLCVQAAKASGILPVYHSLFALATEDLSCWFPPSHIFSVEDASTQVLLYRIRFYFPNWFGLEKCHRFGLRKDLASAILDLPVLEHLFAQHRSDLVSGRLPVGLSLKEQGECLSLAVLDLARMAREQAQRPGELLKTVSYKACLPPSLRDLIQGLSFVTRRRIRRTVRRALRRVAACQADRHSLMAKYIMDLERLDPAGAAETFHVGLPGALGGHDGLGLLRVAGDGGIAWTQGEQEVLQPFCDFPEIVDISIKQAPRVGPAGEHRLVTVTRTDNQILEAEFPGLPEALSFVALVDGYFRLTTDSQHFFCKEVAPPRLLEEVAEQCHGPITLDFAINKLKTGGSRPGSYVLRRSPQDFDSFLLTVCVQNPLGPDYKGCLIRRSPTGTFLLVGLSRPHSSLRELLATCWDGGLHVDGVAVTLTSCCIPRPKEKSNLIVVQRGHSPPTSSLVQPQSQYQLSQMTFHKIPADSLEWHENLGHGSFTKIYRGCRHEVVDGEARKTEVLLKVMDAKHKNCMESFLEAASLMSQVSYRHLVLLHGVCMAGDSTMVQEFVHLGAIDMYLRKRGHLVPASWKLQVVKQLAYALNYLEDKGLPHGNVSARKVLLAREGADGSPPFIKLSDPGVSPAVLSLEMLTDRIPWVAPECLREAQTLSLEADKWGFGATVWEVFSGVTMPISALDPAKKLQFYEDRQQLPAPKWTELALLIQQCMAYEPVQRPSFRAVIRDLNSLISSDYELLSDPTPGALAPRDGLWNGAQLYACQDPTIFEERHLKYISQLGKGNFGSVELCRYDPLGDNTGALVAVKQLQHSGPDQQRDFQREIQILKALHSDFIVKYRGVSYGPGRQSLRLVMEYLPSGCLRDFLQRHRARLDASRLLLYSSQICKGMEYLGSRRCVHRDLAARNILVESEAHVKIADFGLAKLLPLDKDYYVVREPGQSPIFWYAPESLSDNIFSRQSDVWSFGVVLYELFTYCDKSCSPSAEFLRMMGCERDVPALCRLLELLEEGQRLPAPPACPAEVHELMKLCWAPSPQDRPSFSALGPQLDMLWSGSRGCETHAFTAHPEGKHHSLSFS
Procedure: Buffer solution ([…], pH 7.0, 0.2 mm EDTA, 10 mM mncl2), kinase to be tested, substrate of kinase to be tested, 10 mM magnesium acetate and γ33P-ATP solution, and compounds with different concentrations were added to a reaction tube in turn, then MgATP was added to initiate the enzyme reaction process, and incubated at room temperature for 40 min. Then, the reaction was terminated with 5 μl of […], and 10 μl of the reaction solution was titrated onto the Filtermat A membrane, washed with 75 mM phosphate solution for three times, each time for 5 min., and then washed with methanol once. Finally, the Filtermat A membrane was dried and the scintillation count was carried out.

JAK2 = biological target: T2, JAK2 (Homo sapiens, UniProt O60674); test: In vitro kinase activity experiment, JAK2; assay type: biochemical; settings: inhibition rate of enzyme at 500 nM; measured by Eurofins
T2 construct: purchased Eurofins
In short: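 Reactions began on MgATP addition after the kinase, substrate, γ33P-ATP, 10 mM magnesium acetate and compound series were mixed in MOPS buffer pH 7.0 with EDTA and MnCl2. After 40 min at room temperature, phosphate quench, filter-mat capture and washing, incorporated 33P was measured by scintillation counting.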

[1] = tested on: MOLM-13 cells (FLT3-ITD-/+); test: Inhibition of cell proliferation by MTT experiment, MOLM-13; assay type: cell-based, human; settings: Homo sapiens, MOLM-13, 72 h, read-out: IC50 value on cell proliferation inhibition, MOLM-13 FLT3-ITD-/+
In short: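 MTT assay in MV4-11, MOLM-13 (FLT3-ITD) and SET-2 (JAK2 V617F) cells at 10,000–15,000 cells/well in IMDM with 10% FBS. Cells are exposed to compound for 72 h at 37 °C, then to MTT for 1–3 h. IC50 is fitted from inhibition rates across concentrations.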

T2 sequence (O60674 whole entry): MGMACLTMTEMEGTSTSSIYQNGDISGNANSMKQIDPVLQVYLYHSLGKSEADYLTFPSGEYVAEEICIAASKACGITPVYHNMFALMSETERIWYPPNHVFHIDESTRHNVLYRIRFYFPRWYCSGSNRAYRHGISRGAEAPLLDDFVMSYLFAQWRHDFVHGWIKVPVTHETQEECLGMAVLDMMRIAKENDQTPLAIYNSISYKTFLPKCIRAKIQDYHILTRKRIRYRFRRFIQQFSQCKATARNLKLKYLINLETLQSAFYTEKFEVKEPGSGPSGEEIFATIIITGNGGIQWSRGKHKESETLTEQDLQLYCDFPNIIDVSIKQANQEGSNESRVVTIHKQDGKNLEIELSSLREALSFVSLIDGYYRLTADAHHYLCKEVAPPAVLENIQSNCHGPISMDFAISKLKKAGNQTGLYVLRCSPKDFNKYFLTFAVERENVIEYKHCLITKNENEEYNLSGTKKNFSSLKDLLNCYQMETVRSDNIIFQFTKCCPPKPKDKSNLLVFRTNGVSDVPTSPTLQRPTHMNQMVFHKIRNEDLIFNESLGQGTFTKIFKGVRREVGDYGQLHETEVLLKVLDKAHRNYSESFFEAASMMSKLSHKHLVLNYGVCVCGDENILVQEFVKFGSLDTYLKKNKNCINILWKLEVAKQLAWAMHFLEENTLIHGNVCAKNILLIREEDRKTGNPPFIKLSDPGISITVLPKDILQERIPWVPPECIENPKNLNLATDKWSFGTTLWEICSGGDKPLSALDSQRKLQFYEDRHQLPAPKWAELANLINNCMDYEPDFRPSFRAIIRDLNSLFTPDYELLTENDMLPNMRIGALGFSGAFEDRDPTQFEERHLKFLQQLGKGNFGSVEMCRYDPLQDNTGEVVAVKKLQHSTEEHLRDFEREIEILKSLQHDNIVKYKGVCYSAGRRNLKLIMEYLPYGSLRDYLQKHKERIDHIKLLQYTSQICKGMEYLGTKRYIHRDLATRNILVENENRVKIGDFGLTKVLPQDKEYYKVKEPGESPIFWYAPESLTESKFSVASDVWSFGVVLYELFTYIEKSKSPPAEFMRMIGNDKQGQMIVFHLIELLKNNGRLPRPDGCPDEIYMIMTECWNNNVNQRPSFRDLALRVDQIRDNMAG

In the case of `Cc1cnc(Nc2ccc(N3CCC(N(C)CCO)CC3)c(F)c2)nc1-c1cnn(C(C)C)c1` [CLJ-44, 5-methyl-N-(3-fluoro-4-(4-N-hydroxyethyl-4-N-methylaminopiperidine-1-yl)phenyl)-4-(1-isopropyl-1H-pyrazole-4-yl) pyrimidine-2-amine], the “inhibition of growth rate of spleen” value (JAK2V617F) is reported as 96.73%, the “Tumor inhibition rate (%)” value (MV4-11 cells; 30 mg/kg) is reported as 58% and the “Tumor inhibition rate (%)” value (MV4-11 cells; 60 mg/kg) is reported as 93%. The “tolerability, effect on body weight” value (MV4-11 cells; mouse, in vivo) was “well tolerated and has no adverse effect on body weight”, the “Tumor inhibition rate (%)” value (SET-2 cells; 30 mg/kg) was 66% and the “Tumor inhibition rate (%)” value (SET-2 cells; 60 mg/kg) was 85%. The “tolerability, effect on body weight” value (SET-2 cells; mouse, in vivo) was “well tolerated and has no adverse effect on body weight”, the IC50 (JAK3) was 46 nM and the “Kinase activity @ 500 nM (%) JAK2” value (JAK2) was 100%. It also gave an IC50 [1] of 10 to 100 nM.
